According to US11000516B2 (priority 2015, dated 2021):

What was measured:
[1] = test system: EDEN2 (clinical DENV2 isolate); test: Antiviral effect in Vero cells, plaque assay of supernatant 48 h pi; type: cell-based; conditions: Dengue virus, DENV2, Vero
Method: (§1) Cells were infected with DENV strains for 1 hour at 37° C. and washed once with culture media. […] The supernatants were subjected to standard plaque assay and the EC50 values were determined using the GraphPad Prism software.
(§2) NITD008, an adenosine analog inhibitor of DENV polymerase (Yin et al., 2009) was used as a positive control.

[2] = test system: S221 (mouse-adapted DENV2 strain); test: as above; type: cell-based; conditions: S221, MOI 0.3
Method: as §1, §2

[3] = test system: EDEN1 (clinical DENV1 isolate); test: as above; type: cell-based
Method: as §1, §2

DENV2 strain #031 = test: CELADEN clinical strain in HuH-7 cells, single concentration, virus titer by plaque assay; type: cell-based; conditions: strain #031, celgosivir 3 mM, 48 hours pi
Method: (§3) EDEN1, EDEN2 and S221 were used as control virus strains. The MOI of each strain was indicated in supplementary FIG. 2. After 48 hours pi, virus titer in the supernatants was determined by standard plaque assay using BHK-21 cells. The percentages of virus titer were calculated based on virus infection control of each strain. Error bars indicate standard deviations from duplicate experiments. (B and C) Mice were inoculated i.v. with DENV2 strains, #031 (2×10^7 pfu), #013 (1×10^7 pfu) or #036 (2×10^7 pfu). […] Average viral copy numbers on day 1-2 were measured using mixed serum of each group. Viral copy number on day 3 was measured individually and the graphs show the average results with standard deviations. A P value less than 0.05 was considered significant (*P<0.05). […] Viral copy number on day 3-6 was measured individually and shown in the graphs as the average results with standard deviations. The VLR from day 3 to day 6 was also shown as the mean value and standard deviations. The number of mice per group is 6.
(§4) Total 16 clinical DENV virus were recovered from serum of CELADEN trial patients with 8 of either DENV1 or DENV2 infection. […] The MOI was varied among strains to obtain similar levels of virus titer (within 10-fold difference). The MOI was 0.01 (EDEN1), 0.1 (#005, #048, #004, #033, #010, #013, #022, #036), 0.2 (#016, #017, #011, EDEN2, S221), 0.5 (#049, #038), 1 (#028, #031) and 2 (#025). After 48 hours post-infection, virus titer in the supernatants was determined by standard plaque assay using BHK-21 cells. Error bars indicate standard deviations from duplicate experiments.
(§5) Since infection levels in HuH-7 cells are different among the strains, the MOI of each strain was varied to obtain similar levels of virus titer in the supernatant (FIG. 8).

DENV2 strain #013 = test: as above; type: cell-based; conditions: strain #013, celgosivir 3 mM, 48 hours pi
Method: as §3, §4, §5

DENV2 strain #036 = test: as above; type: cell-based; conditions: strain #036, celgosivir 3 mM, 48 hours pi
Method: as §3, §4, §5

S221 = test: Lethal ADE infection model in AG129 mice (4G2 Ab pre-injection); type: in vivo
Method: (§6) AG129 mice were inoculated i.v. with EDEN1 (7×10^7 pfu), EDEN2 (1×10^8 pfu) or S221 (2×10^4 pfu) for non-lethal infection. For the ADE infection (lethal), mice were pre-injected i.p. with 50 μg (for EDEN1 and EDEN2) or 10 μg (for S221) 4G2 Ab one day prior to infection. (A) Mouse survival rate was monitored by day 10 pi. (B) Blood samples were collected on days 1-8 pi and mixed serum from each group were subjected to real-time RT-PCR to obtain the average viral genome copy numbers. (C) Serum levels of TNFα and IL-6 were measured by ELISA assay. The numbers of mice per group are 6 (EDEN1) or 5 (EDEN2 and S221).
(§7) AG129 mice were pre-injected i.p. with 50 μg (for EDEN1 and EDEN2) or 10 μg (for S221) 4G2 Ab followed by next day inoculation i.v. with EDEN1 (7×10^7 pfu), EDEN2 (1×10^8 pfu) or S221 (2×10^4 pfu). […] (A) Mouse survival rate was monitored by day 10 pi. (B) Blood samples were collected on day 1-4 pi and mixed serum from each group were subjected to real-time RT PCR to obtain the average viral genome copy numbers (left panels). […] A P value less than 0.05 was considered significant (*P<0.05). The number of mice per group is 5.
as §7, with “with” for “with 50 μg (for EDEN1 and EDEN2) or 10 μg (for S221)”, “with EDEN1,” for “with EDEN1 (7×10^7 pfu),”, “EDEN2” for “EDEN2 (1×10^8 pfu)”, “S221 as described above.” for “S221 (2×10^4 pfu).”, “on days” for “on day”, “is 6.” for “is 5.”
(§8) AG129 mouse models of clinical DENV strains, EDEN1 and EDEN2, in addition to mouse-adapted S221 strain were developed. To increase infection level in mice, high virus titer of EDEN1 (7×10^7 pfu) and EDEN2 (1×10^8 pfu) were inoculated intravenously (iv) into AG129 mice.

EDEN1 = test: as above; type: in vivo
Method: as §6, §7
as §7, with “with” for “with 50 μg (for EDEN1 and EDEN2) or 10 μg (for S221)”, “with EDEN1,” for “with EDEN1 (7×10^7 pfu),”, “EDEN2” for “EDEN2 (1×10^8 pfu)”, “S221 as described above.” for “S221 (2×10^4 pfu).”, “on days” for “on day”, “is 6.” for “is 5.”
as §8

EDEN2 = test: as above; type: in vivo
Method: as §6, §7
as §7, with “with” for “with 50 μg (for EDEN1 and EDEN2) or 10 μg (for S221)”, “with EDEN1,” for “with EDEN1 (7×10^7 pfu),”, “EDEN2” for “EDEN2 (1×10^8 pfu)”, “S221 as described above.” for “S221 (2×10^4 pfu).”, “on days” for “on day”, “is 6.” for “is 5.”
as §8

Which EC50 ([1]; EDEN2, MOI 0.3) does the source give for `CCCC(=O)O[C@H]1CN2CC[C@H](O)[C@@H]2[C@@H](O)[C@@H]1O` [celgosivir] here?
Its EC50 is 2.43 µM.

And the EC50 ([1]; EDEN2, MOI 0.3 (text))?
The EC50 was 2.4 µM.

And the EC50 ([2]; Dengue virus, DENV2, Vero)?
Its EC50 is 8.3 µM.

And the EC50 [2]?
The EC50 was 8.34 µM.

What about the EC50 ([3]; EDEN1, MOI 0.01) of the same compound?
The EC50 was 13.8 µM.

What about the EC50 ([3]; EDEN1, MOI 0.3) of the same compound?
The EC50 was 51 µM.

And the “reduction in virus titer in the supernatant of HuH-7 cells” value (“reduction in virus titer” below) (DENV2 strain #031)?
The value was 52%.

What about the “reduction in virus titer” value (DENV2 strain #013) of the same compound?
Its value is 67%.

What about the “reduction in virus titer” value (DENV2 strain #036) of the same compound?
The value was 70%.

And the “protection from death (survival)” value (S221; S221, 10 mg/kg BID from time of infection)?
The value was “could not protect mice from death”.

And the “protection from lethal infection (survival)” value (S221; S221, 50 mg/kg BID orally from time of infection)?
Its value is “completely protected mice from lethal infection”.

What about the “viremia reduction versus VC on day 3” value (S221; S221, lethal ADE model, 10 mg/kg BID from day 0) of the same compound?
The value was 1.4 fold.

What about the “lower viremia level than vehicle control on day 3 pi” value (S221; S221, lethal ADE model, 50 mg/kg BID from day 0) of the same compound?
The value was 2.4 fold.

What about the “protection from death (survival)” value (EDEN1; EDEN1, 10 mg/kg BID from time of infection) of the same compound?
Its value is “could not protect mice from death”.

And the “viremia reduction versus VC on day 3” value (EDEN1; EDEN1, lethal ADE model, 10 mg/kg BID from day 0)?
Its value is 1.8 fold.

What about the “lower viremia level than vehicle control on day 3 pi” value (EDEN1; EDEN1, lethal ADE model, 50 mg/kg BID from day 0) of the same compound?
The value was 4.3 fold.

What about the “protection from death (survival)” value (EDEN2; EDEN2, 10 mg/kg BID from time of infection) of the same compound?
Its value is 100%.

What about the “viremia reduction versus VC on day 3” value (EDEN2; EDEN2, lethal ADE model, 10 mg/kg BID from day 0) of the same compound?
Its value is 3.7 fold.

And the “lower viremia level than vehicle control on day 3 pi” value (EDEN2; EDEN2, lethal ADE model, 50 mg/kg BID from day 0)?
Its value is 16.5 fold.
